Reference: the NIST ThermoML archive (doi:10.1016/j.jct.2012.11.027)

Experiment: xn = mol fraction of the nth substance listed
Conditions: 101 kPa, Liquid, Linear variable-path acoustic interferometer

C=CC(=O)OC [methyl propenoate] + CCCCCCO
speed of sound [m/s]
Conditions	288.15 K	293.15 K	298.15 K	303.15 K	308.15 K	313.15 K	318.15 K
x1 = 0.077	1325.5	1306.4	1290.5	1272	1256.5	1236.3	1216.5
x1 = 0.1542	1311.1	1291.6	1275.3	1256.1	1240.1	1219.7	1199.7
x1 = 0.2299	1297.1	1277.5	1260.7	1241.8	1225.1	1204.8	1185.1
x1 = 0.3057	1284.1	1264.4	1247.4	1228.5	1211.6	1191.6	1171.8
x1 = 0.3834	1272	1252.3	1235.1	1216.4	1199.1	1179.4	1159.6
x1 = 0.4612	1261.7	1242	1224.5	1205.6	1187.9	1168.1	1148.2
x1 = 0.534	1253.5	1233.6	1215.9	1196.7	1178.5	1158.6	1138.4
x1 = 0.6068	1246.6	1226.4	1208.2	1188.7	1169.8	1149.7	1129.3
x1 = 0.672	1241.3	1220.8	1202.2	1182.4	1162.8	1142.4	1121.7
x1 = 0.737	1237.3	1216.6	1197.5	1177.4	1157	1136.3	1115.2
x1 = 0.8046	1233.9	1212.9	1193.4	1172.8	1151.6	1130.6	1109.1
x1 = 0.8722	1231.2	1209.8	1189.8	1168.7	1146.7	1125.4	1103.5
x1 = 0.9361	1229.1	1207.4	1186.7	1165.4	1142.6	1121.2	1099.4
x1 = 1	1226.6	1204.6	1183.6	1162.2	1139.1	1117.8	1095.7
